The nature of data set [1]: Solubility of rotigotine in polymers and solvents. It counts as physicochemical. As to conditions: e.g. hexane, ethyl acetate and toluol.
For data set [2] the following is noted: cited from earlier work.

On to `CCCN(CCc1cccs1)[C@H]1CCc2c(O)cccc2C1` [Rotigotine, (−)-5,6,7,8-tetrahydro-6-[propyl[2-(2-thienyl)ethyl]amino]-1-naphtol], for which, in data set [1], the “Solubility of the crystals in solvents suitable for dissolving matrix polymers” value is listed as “nearly insoluble”. For the same molecule, in data set [2], the “Solubility in hydrophobic polymers such as silicon” value was “only feebly soluble”.
